From patent US10174060B2, “Process for purifying monooctylin trichloride” (CHEMTURA CORPORATION, priority 2014, dated 2019)

Tests used:
[1] = cited from earlier work
[2] = Extraction of mono-n-octyltin trichloride from organic phase into aqueous aluminum chloride phase, dependence on chloride concentration (Example 4); format: physicochemical; conditions: stepwise dilution with deionized water
Method: A mixture was prepared, consisting by weight of 55.7% mono-n-octyltin trichloride, 10.7% di-n-butyl ether, 26.2% n-heptane, 7.3% AlCl3. 10 g of this mixture were transferred into a graduated glass cylinder.
Portions of deionized water were added stepwise to the system, and the volume changes of organic and aqueous phase were noted. Volume decrease of the organic phase indicates extraction of monooctyltin into the aqueous phase.

[3] = Extraction of mono-n-octyltin trichloride from organic phase into aqueous hydrochloric acid phase, dependence on chloride concentration (Example 5); format: physicochemical; conditions: stepwise dilution with deionized water
Method: 20.3 g of mono-n-octyltin trichloride, 3.9 g of di-n-butyl ether and 9.5 g of n-heptane were mixed to give of clear and homogeneous solution. 8.6 g (7.4 mL) of a 32% aqueous HCl solution were added. The mixture was stirred for ca. 10 minutes, and then transferred into a graduated glass cylinder. 2 phases appeared; they were allowed to settle.
Portions of deionized water were added stepwise to the system, and the volume changes of organic and aqueous phases were noted. Volume decrease of the organic phase indicates extraction of monooctyltin into the aqueous phase.

[4] = Extraction of mono-n-octyltin trichloride into aqueous aluminum chloride phase, dependence on temperature (Example 6); format: physicochemical; conditions: 30 minutes settling, 20 g mixture (18.5 mL) plus 8.4 g deionized water
Method: A mixture was prepared, consisting by weight of 55.7% mono-n-octyltin trichloride, 10.7% di-n-butyl ether, 26.2% n-heptane, 7.3% AlCl3. To 20 g of this mixture (having a volume of 18.5 mL), 8.4 g of deionized water were added under stirring, and the resulting mixture was placed into a graduated glass cylinder.
The temperature in the glass cylinder was adjusted to 20° C., and the phases were allowed to settle and separate for 30 minutes. The resulting volume of the organic phase was 8 mL.
Subsequently, the temperature in the glass cylinder was adjusted to 40° C., and the phases were allowed to settle and separate for 30 minutes. The resulting volume of the organic phase was 10 mL.
Subsequently, the temperature in the glass cylinder was adjusted to 60° C., and the phases were allowed to settle and separate for 30 minutes. The resulting volume of the organic phase was 14 mL.

[5] = Extraction of mono-n-octyltin trichloride with aqueous sodium chloride phase (Example 7); format: physicochemical; conditions: 16 mL organic mixture, 2.5 g saturated NaCl solution plus 5 g deionized water, 45° C.
Method: 10.15 g of mono-n-octyltin trichloride, 1.95 g of di-n-butyl ether and 4.75 g of n-heptane were mixed to give of clear and homogeneous solution. […] 2.5 g of a saturated NaCl solution was were added. The mixture was stirred for ca. 10 minutes, and then transferred into a graduated glass cylinder. Phase separation could not be observed, because a suspension had formed. When further 5 g of deionized water were added and the mixture was heated to 45° C., 2 phases appeared. When they had settled, it became visible, that the volume of the organic phase was reduced from 16 mL to ca. 8 mL, indicating extraction of monooctyltin trichloride into the aqueous phase. Upon cooling to room temperature, the lower aqueous phase solidified.

Row | SMILES | solubility in water [1] | aqueous aluminum chloride concentration at which extraction becomes particularly efficient [2] [%] | HCl concentration at which extraction becomes particularly efficient [3] | volume of the organic phase ([4]; 20° C.) [mL] | volume of the organic phase ([4]; 40° C.) [mL] | volume of the organic phase ([4]; 60° C.) [mL] | volume of the organic phase after extraction [5]
1 | CCCCCCC[CH2][Sn]([Cl])([Cl])[CH2]CCCCCCC [dioctyltin dichloride] | practically insoluble | – | – | – | – | – | –
2 | CCCCCCC[CH2][Sn]([Cl])([Cl])[Cl] [mono-n-octyltin trichloride] | practically insoluble | ≤ 17 | approx. 16% | 8 | 10 | 14 | ca. 8 mL
3 | CCC[CH2][Sn]([Cl])([Cl])[Cl] [monobutyltin trichloride] | miscible | – | – | – | – | – | –
4 | CCCCCCC[CH2][Sn]([Cl])([CH2]CCCCCCC)[CH2]CCCCCCC [trioctyltin chloride] | practically insoluble | – | – | – | – | – | –
